Measurements: paper PMC10484922, “Discovery of a selective and biologically active low-molecular weight antagonist of human interleukin-1β” (Nature Communications, 2023)
“And” between values parts separate entries of the source, which are not always exact repeats. Identical values can stand only once. “Also recorded” adds a separate entry of the source.

Tested on: normal human dermal fibroblasts stimulated with hIL-1β
Test: Human fibroblast IL-6 release assay, hIL-1β stimulated
Assay type: cell-based
Set-up: IL-6, average / inhibition, replicates of EXP1, EXP2, EXP3 / inhibition, Mean / IL-1beta (mean, SD): mean readout (IL-6 release): unit not given here
Details: for % Inhibition (EXP1-EXP3, single experiments) / % Inhibition, Mean: Figure 3b; for % Inhibition, Mean: mean of 3 experiments; for Mean OD (OD 450nm) / IL-1beta (mean, SD): mean readout (IL-6 release): Figure 3c; for Mean OD (OD 450nm): compound 1 nM; for IL-1beta (mean, SD): mean readout (IL-6 release): compound @ 1nM
Procedure: We used HEK-Blue™ IL-1β cells that respond specifically to IL-1 (# hkb-il1b, InvivoGen). These cells can detect IL-1α and IL-1β, as these cytokines bind to the same receptor, IL-1R1. They express a Seap reporter gene under the control of the IFN-β minimal promoter fused to five NF-kappaB and five AP-1 binding sites. Thirty microliters (300,000 cells/ml) per well of a 384-well plate were plated overnight. Cells were then stimulated with graded concentrations of cytokines (hIL-1α or hIL-1β) in the absence or presence of canakinumab (Ilaris®, ILARI LYVI 150MG 22GLW.012, batch U003 0409)[22], anakinra (Kineret®, 100 mg/0.67 ml injectable solution, Sobi)[23], or compound (S)-2 (compounds were pre-mixed for 1 h with the cytokine prior to addition to cells) and further incubated overnight before assessment of Seap activity.
Normal human dermal fibroblasts (NHDF) from Clonetics^TM (LONZA, Cat # CC-2509 (NHDF-Neo), Lot # 0000234242, used at passage ≤14) were seeded at a density of 5000 cells/well in 100 μL of culture medium using 96-well plates (flat bottom, TCT). Treatment with cytokines/compounds was performed as described above. Cells were incubated for another 6 h and were subsequently spun down (320g/3 min). IL-6 was measured in the supernatant by ELISA (BioLegend, # 430503) or HTRF (Cisbio, #62HIL06PEH).

[1] = Canakinumab concentration 0.00457247 (unit not given)
[2] = Canakinumab concentration 0.0137174 (unit not given)
[3] = Canakinumab concentration 0.0411523 (unit not given)
[4] = Canakinumab concentration 0.123457 (unit not given)
[5] = Canakinumab concentration 0.37 (unit not given)
[6] = Canakinumab concentration 1.11 (unit not given)
[7] = Canakinumab concentration 3.33 (unit not given)

**Q.** “canakinumab: anti-hIL-1β antibody [reference compound]” was tested. Which “block of hIL-1β driven IL-6 release” value did it give?
**A.** fully blocked; also recorded: selectively inhibited IL-1β driven activity

**Q.** What about the “% Inhibition (EXP1-EXP3, single experiments)” value [1] of the same substance?
**A.** 15.5% and 11.1% and 14.6%

**Q.** What about the “% Inhibition, Mean” value [1] of the same substance?
**A.** 13.7%

**Q.** What about the “% Inhibition (EXP1-EXP3, single experiments)” value [2] of the same substance?
**A.** 23.7% and 27.7% and 26.5%

**Q.** What about the “% Inhibition, Mean” value [2] of the same substance?
**A.** 26%

**Q.** And the “% Inhibition (EXP1-EXP3, single experiments)” value [3]?
**A.** 29% and 29.6% and 31.5%

**Q.** What about the “% Inhibition, Mean” value [3] of the same substance?
**A.** 30%

**Q.** And the “% Inhibition (EXP1-EXP3, single experiments)” value [4]?
**A.** 46.1% and 41.8% and 58.9%

**Q.** And the “% Inhibition, Mean” value [4]?
**A.** 48.9%

**Q.** And the “% Inhibition (EXP1-EXP3, single experiments)” value [5]?
**A.** 71.6% and 66.1% and 70.6%

**Q.** And the “% Inhibition, Mean” value [5]?
**A.** 69.4%

**Q.** And the “% Inhibition (EXP1-EXP3, single experiments)” value [6]?
**A.** 91.2% and 93.8% and 92.3%

**Q.** What about the “% Inhibition, Mean” value [6] of the same substance?
**A.** 92.4%

**Q.** And the “% Inhibition (EXP1-EXP3, single experiments)” value [7]?
**A.** 99.3% and 99.2% and 98.7%

**Q.** And the “% Inhibition, Mean” value [7]?
**A.** 99%

**Q.** What about the “Mean OD (OD 450nm)” value (hu IL-1b 0 pg/mL) of the same substance?
**A.** 0.033

**Q.** And the “IL-1beta (mean, SD): mean readout (IL-6 release)” value (from here on “IL-1beta (mean, SD): mean readout”) (hu IL-1b 0 pg/mL)?
**A.** 0

**Q.** And the “Mean OD (OD 450nm)” value (hu IL-1b 40 pg/mL)?
**A.** 0.046

**Q.** And the “IL-1beta (mean, SD): mean readout” value (hu IL-1b 40 pg/mL)?
**A.** 0

**Q.** What about the “Mean OD (OD 450nm)” value (hu IL-1b 80 pg/mL) of the same substance?
**A.** 0.099

**Q.** What about the “IL-1beta (mean, SD): mean readout” value (hu IL-1b 80 pg/mL) of the same substance?
**A.** 0

**Q.** What about the “Mean OD (OD 450nm)” value (hu IL-1b 120 pg/mL) of the same substance?
**A.** 0.15

**Q.** What about the “IL-1beta (mean, SD): mean readout” value (hu IL-1b 120 pg/mL) of the same substance?
**A.** 353.7

**Q.** What about the “Mean OD (OD 450nm)” value (hu IL-1b 160 pg/mL) of the same substance?
**A.** 0.229

**Q.** What about the “IL-1beta (mean, SD): mean readout” value (hu IL-1b 160 pg/mL) of the same substance?
**A.** 936.8

**Q.** What about the “Mean OD (OD 450nm)” value (hu IL-1b 200 pg/mL) of the same substance?
**A.** 0.252

**Q.** And the “IL-1beta (mean, SD): mean readout” value (hu IL-1b 200 pg/mL)?
**A.** 1110.8
